Tests used:
ERK phosphorylation = ERK phosphorylation in SK-MEL-1 tumors (western blot); format: in vivo, nude mice; settings: SK-MEL-1 tumors removed 8 hours post last dose; FIG. 4
Method: Athymic nude mice were inoculated with 2×10^6 SK-MEL-1 human melanoma cells (1 injection in flank; 1 injection per mouse) and 100-200 cubic mm tumors were established. pegylated IFN β-1a was provided in 20 mM acetic acid/sodium acetate at a pH of 4.8 and 150 mM arginine/HCl containing 15 mg/mL human serum albumin (HSA). HSA was used as a control and administered at a concentration of 15 mg/mL. Mice (10 per group) were randomized and treated with either:
i. PEG400 (once a day (QD) for 14 days) and pegylated Interferon-beta-1a (10 μg once a week (QW) for 3 weeks); ii. PD325901 (15 mg/kg once a day (QD) for 14 days) and pegylated Interferon-beta-1a (10 μg once a week (QW) for 3 weeks); iii. PEG400 (once a day (QD) for 14 days) and (HSA) (QW for 3 weeks); iv. PD325901 (15 mg/kg once a day (QD) for 14 days) and HSA (QW for 3 weeks).
Tumors were measured every 3 days using calipers and volume was calculated for a prolate spheroid. The identity of the vehicle control for pegylated interferon-beta-1a vehicle (HSA) and pegylated Interferon-beta-1a was blinded. Tumors were removed 8 hours post last dose and frozen for ERK phosphorylation analysis.

[1] = test system: SK-MEL-1 human melanoma cells; assay: SK-MEL-1 melanoma tumor volume in nude mice; format: in vivo; settings: SK-MEL-1 tumor volume; PD325901 15 mg/kg QD 14 days, pegylated Interferon-beta-1a 10 μg QW 3 weeks
Method: Tumors were measured every 3 days using calipers and volume was calculated for a prolate spheroid, defined as:
where L equals the major diameter and W equals the minor diameter.

[2] = test system: MDA-MB-231 breast carcinoma cells; assay: MDA-MB-231 breast carcinoma tumor volume in SCID mice; format: in vivo; settings: paclitaxel 25 mg/kg I.P. q4d x 3, pegylated interferon beta 1a 0.4 to 1.6 mg/kg SC BIW
Method: 8-10 week old SCID mice from Charles River Labs were inoculated subcutaneously with 5×10^6 MDA-MB-231 breast carcinoma cells with 50% matrigel in the flank region. When the average tumor volumes reached approximately 200 mm^3 the tumor-bearing mice were randomized to treatment groups. Pegylated IFN-1a was provided in 20 mM acetic acid/sodium acetate at a pH of 4.8 and 150 mM arginine/HCl (4.8A buffer). Paclitaxel was provided in a Cremophor Ethanol Saline mixture (CES buffer).

Compound | ERK phosphorylation compared to vehicle and pegylated Interferon-beta-1a treated groups (ERK phosphorylation) | difference between estimates of least square means between treatment groups and vehicle control group [1] | inhibition of tumor growth, single agent versus vehicle controls [2]
O=C(NOC[C@H](O)CO)c1ccc(F)c(F)c1Nc1ccc(I)cc1F [PD325901, N-[(2R)-2,3-dihydroxypropoxy]-3,4-difluoro-2-[(2-fluoro-4-iodo-phenyl)amino]benzamide] | significant inhibition of ERK phosphorylation | −4.52 | 
CC(=O)O[C@H]1C(=O)[C@@]2(C)[C@H]([C@H](OC(=O)c3ccccc3)[C@]3(O)C[C@H](OC(=O)[C@H](O)[C@@H](NC(=O)c4ccccc4)c4ccccc4)C(C)=C1C3(C)C)[C@]1(OC(C)=O)CO[C@@H]1C[C@@H]2O [paclitaxel] |  |  | greater inhibition of tumor growth compared to mice treated with vehicle controls
